The test system of one data set is EGFR. Set-up: method as in Elkins et al., 2016. Particulars: PKIS1, Caliper assay, ref Elkins et al., 2016; cited from earlier work.
In a further data set the test system is HER4. Set-up: method as in Elkins et al., 2016. To be noted: PKIS1, Caliper assay, ref Elkins et al., 2016; cited from earlier work.
Another data set relates to HER2. Set-up: method as in Elkins et al., 2016. To be noted: PKIS1, Caliper assay, ref Elkins et al., 2016; cited from earlier work.
The test system of a further data set is intracellular MRSA. Type of data set: cell-based, Staphylococcus aureus. Particulars: for %GFP+ rep 1 / z-scoreMRSA+ rep 1: replicate 1; for %GFP+ rep 2 / z-scoreMRSA+ rep 2: replicate 2; for %GFP+ rep 3 / z-scoreMRSA+ rep 3: replicate 3; for z-scoreMRSA+ mean: mean of 3 replicates. In short, it runs like this:
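Values are z-scores: GFP-positive HeLa percentage and event count per well against plate statistics, minus the mean DMSO z-score. Wells deviating two-fold from controls were left out of plate means. Infection was at a mean MOI of 6.8, with an overnight compound exposure.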

The next data set deals with HeLa cells. The experiment in a line: Compound screen by flow cytometry: HeLa cell count as surrogate readout of cell viability (z-scoreHeLa). Type of data set: cell-based, human. To be noted: for cell count rep 1 / z-scoreHeLa rep 1: replicate 1; for cell count rep 2 / z-scoreHeLa rep 2: replicate 2; for cell count rep 3 / z-scoreHeLa rep 3: replicate 3; for z-scoreHeLa mean: mean of 3 replicates. The procedure, abridged: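 The viability surrogate was the count of fixed HeLa cells by flow cytometry, converted to z-scores against DMSO controls with values deviating two-fold excluded. Before counting, cells had been infected with MRSA for 1 h and cleared of extracellular bacteria with gentamicin. They were then exposed overnight to kinase inhibitors in triplicate.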
A general note: A flow cytometer gives signals particle by particle.

Data set [1] relates to intracellular MRSA in HeLa cells. The experiment in a line: Gentamicin protection assay with CFU count in MRSA-infected HeLa cells. Particulars: tested at different concentrations, Figure 4K. Type of data set: cell-based, Staphylococcus aureus. The protocol: The cells were resuspended in cell culture medium without antibiotics, seeded with 10,000 cells/well into Costar flat-bottom 96-well plates (Corning, Amsterdam, the Netherlands), and were incubated overnight at 37°C/5% CO2. The next day, the bacteria were centrifuged at ≥1800 g for 15 min and resuspended in cold PBS + 5 mM ethylenediaminetetraacetic acid (EDTA). The number of CFUs present in the bacterial suspension was estimated from the optical density at 600 nm (OD600) by assuming 8x10^8 CFUs to be present in a bacterial suspension with OD600 = 1, based on prior titrations. The bacterial suspension was diluted in cell culture medium without antibiotics and added to the cells. Accuracy of the multiplicity of infection (MOI) was validated by plating serial dilutions of the MRSA inoculums on Difco TS agar plates (BD Biosciences). The calculated mean MOI throughout all experiments was 6.8 ± 4.6 (mean ± SD). Infected cells were centrifuged for 3 min at 150 g and incubated for 1 hour at 37°C/5% CO2. Next, the cells were incubated with fresh cell culture medium supplemented with 30 µg/ml gentamicin sulphate (Lonza BioWhittaker, Basel, Switzerland) for 15 min at 37°C/5% CO2 to kill residual extracellular bacteria. Infected cells were incubated overnight at 37°C/5% CO2 in cell culture medium in the presence of kinase inhibitors and 5 µg/ml gentamicin sulphate-containing medium to prevent the growth of extracellular bacteria. The solvent of the compounds, DMSO, was used at equal % v/v as a negative control. For the screen, each compound was tested in triplicate, on separate cell culture plates, resulting in triplicate values for each kinase inhibitor.
Infected cells were lysed in sterile water + 0.05% UltraPure SDS solution (Invitrogen, ThermoFisher Scientific) to release intracellular bacteria. Bacterial suspensions and lysates of cells infected with MRSA were 5-fold serially diluted and 10-μl drops were plated on square TS agar plates. The plates were left to dry and incubated overnight at 37°C/5% CO2.

[2] abbreviates: PKIS compounds raw data, MRSA-infected HeLa cells.
Where [3] appears, read: Yes/No: effect without cell death.
[4] abbreviates: compound screen, MRSA-infected HeLa cells.
Where [5] appears, read: PKIS compounds raw data, HeLa cell count.
[6] abbreviates: compound screen, HeLa cell count.
The mark [7] stands for this setting: PKIS compound screen, Yes/No call.
[8] abbreviates: PKIS compound screen, Yes/No call (effect without cell death).
The mark [9] stands for this setting: PKIS compound screen raw data, MRSA-infected HeLa cells.
The mark [10] stands for this setting: PKIS compound screen, MRSA-infected HeLa cells.
The mark [11] stands for this setting: PKIS compound screen, Yes/No call on z-scoreMRSA+.
Setting [12] is: PKIS compound screen raw data, HeLa cell count.
[13] abbreviates: PKIS compound screen, HeLa cell count.
[14] abbreviates: PKIS compound screen, Yes/No call on z-scoreHeLa.

SMILES strings stand for the structures. Where two headings read alike, the source gives them in different places.

These results are taken from article PMC10999543, “Identification of kinase modulators as host-directed therapeutics against intracellular methicillin-resistant Staphylococcus aureus” (Frontiers in Cellular and Infection Microbiology, 2024).

The % inhibition is the share of the control response that was lost under treatment. With `O=S(=O)(CCOCc1ccc(-c2ccc3ncnc(Nc4ccc(OCc5cccc(F)c5)c(Cl)c4)c3c2)o1)c1ccccc1` [GW615311X], the “% inhibition at 1 µM EGFR” value in the data set with EGFR is on record as 85%. Further, the “% inhibition at 1 µM HER4” value in the data set with HER4 is on record as 73%. The “% inhibition at 1 µM HER2” value in the data set on HER2 is on record as 70%. In the data set on intracellular MRSA (setting [2]), the “%GFP+ rep 1” value amounted to 14.3%, the “%GFP+ rep 2” value turned out to be 12.7% and the “%GFP+ rep 3” value was 13.9%. In addition, the effect entry in the data set on intracellular MRSA (Yes/No call from z-scoreMRSA+) was “No”. Further, the hit entry with intracellular MRSA (setting [3]) is on record as “No”. In the data set with intracellular MRSA (setting [4]), the “z-scoreMRSA+ mean” value was -0.16, the “z-scoreMRSA+ rep 1” value turned out to be 0.36, the “z-scoreMRSA+ rep 2” value was -0.27 and the “z-scoreMRSA+ rep 3” value is reported as -0.59. Also, in the data set on HeLa cells (setting [5]), the “cell count rep 1” value amounted to 4217, the “cell count rep 2” value stood at 4665 and the “cell count rep 3” value came out at 7934. Besides, in the data set with HeLa cells (Yes/No call from z-scoreHeLa), the cell death result is “No”. Further, in the data set with HeLa cells (setting [6]), the z-scoreHeLa mean came to 0.09, the “z-scoreHeLa rep 1” value is -0.51, the “z-scoreHeLa rep 2” value was 0.30 and the “z-scoreHeLa rep 3” value turned out to be 0.47.
In the case of `[O-][S+]1CCN(Cc2ccc(-c3ccc4ncnc(Nc5ccc(OCc6ccccc6)c(Cl)c5)c4c3)o2)CC1` [GW583373A], the “% inhibition at 1 µM HER4” value in the data set on HER4 is 84%. Moreover, the “% inhibition at 1 µM HER2” value in the data set with HER2 is given as 73%. Also, the effect result in the data set on intracellular MRSA (setting [7]) was “No”. Besides, the hit entry in the data set with intracellular MRSA (setting [8]) was “No”. For the same compound, in the data set with intracellular MRSA (PKIS compound screen), the “z-scoreMRSA+ mean” value is recorded as -1.31, the “z-scoreMRSA+ rep 1” value is listed as -1.43, the “z-scoreMRSA+ rep 2” value is given as -1.26 and the “z-scoreMRSA+ rep 3” value is listed as -1.26. Besides, in the data set with intracellular MRSA (setting [2]), the “%GFP+ rep 1” value worked out at 19.7%, the “%GFP+ rep 2” value worked out at 19.5% and the “%GFP+ rep 3” value is on record as 20.5%. Further, in the data set on HeLa cells (setting [7]), the cell death entry is recorded as “No”. For the same compound, in the data set with HeLa cells (PKIS compound screen), the z-scoreHeLa mean worked out at 1.46, the “z-scoreHeLa rep 1” value came to 1.65, the “z-scoreHeLa rep 2” value was found to be 1.30 and the “z-scoreHeLa rep 3” value is reported as 1.44. Further, in the data set with HeLa cells (setting [5]), the “cell count rep 1” value is on record as 8794, the “cell count rep 2” value is recorded as 7971 and the “cell count rep 3” value came to 7863.
Turning to `[O-][S+]1CCN(Cc2ccc(-c3ccc4ncnc(Nc5ccc(OCc6cccc(F)c6)c(Cl)c5)c4c3)o2)CC1` [GW576609A], in the data set on EGFR, the “% inhibition at 1 µM EGFR” value is 84%. In addition, in the data set with HER4, the “% inhibition at 1 µM HER4” value is recorded as 91%. Further, the “% inhibition at 1 µM HER2” value in the data set on HER2 is 80%. In the data set on intracellular MRSA (setting [9]), the “%GFP+ rep 1” value amounted to 13.3%, the “%GFP+ rep 2” value is 14.3% and the “%GFP+ rep 3” value turned out to be 14.3%. Also, in the data set with intracellular MRSA (setting [10]), the “z-scoreMRSA+ mean” value is -1.46, the “z-scoreMRSA+ rep 1” value was -1.45, the “z-scoreMRSA+ rep 2” value was -1.27 and the “z-scoreMRSA+ rep 3” value was -1.67. In addition, the hit entry in the data set on intracellular MRSA (setting [8]) was “No”. For the same compound, the effect result in the data set on intracellular MRSA (setting [11]) was “No”. Moreover, in the data set on HeLa cells (setting [12]), the “cell count rep 1” value worked out at 27921, the “cell count rep 2” value was 36007 and the “cell count rep 3” value is reported as 40876. Besides, in the data set on HeLa cells (setting [13]), the z-scoreHeLa mean turned out to be 0.49, the “z-scoreHeLa rep 1” value was 1.18, the “z-scoreHeLa rep 2” value was found to be 0.23 and the “z-scoreHeLa rep 3” value is reported as 0.0554. For the same compound, the cell death entry in the data set with HeLa cells (setting [14]) is reported as “No”.
With `CNC(=O)CN1CCC(Oc2cc3c(Nc4cccc(Cl)c4F)ncnc3cc2OC)CC1` [sapitinib, reference compound], the “effect on bacterial burden of MRSA-infected HeLa cells” value in data set [1] was “unable to reduce the bacterial burden”.
In the case of `O=C(NC1CCN(c2ccnc(Nc3ccc(F)cc3)n2)C1)c1cc2ccccc2s1` (centres unmarked) [GSK1379716A], in the data set with intracellular MRSA (setting [9]), the “%GFP+ rep 1” value was 18.9%, the “%GFP+ rep 2” value was determined as 18.2% and the “%GFP+ rep 3” value is given as 21.3%. For the same compound, in the data set with intracellular MRSA (setting [10]), the “z-scoreMRSA+ mean” value is -0.09, the “z-scoreMRSA+ rep 1” value was 0.0322, the “z-scoreMRSA+ rep 2” value is reported as -0.33 and the “z-scoreMRSA+ rep 3” value stood at 0.0175. Further, in the data set on intracellular MRSA (setting [7]), the effect entry is listed as “No”. The hit result in the data set with intracellular MRSA (setting [8]) is “No”. Moreover, the effect result with intracellular MRSA (setting [11]) is given as “No”. In the data set with intracellular MRSA (PKIS compound screen), the “z-scoreMRSA+ mean” value came to 0.16, the “z-scoreMRSA+ rep 1” value is 0.26, the “z-scoreMRSA+ rep 2” value is given as 0.28 and the “z-scoreMRSA+ rep 3” value is recorded as -0.07. Further, in the data set on intracellular MRSA (setting [2]), the “%GFP+ rep 1” value is reported as 28.4%, the “%GFP+ rep 2” value stood at 27.5% and the “%GFP+ rep 3” value is recorded as 26.9%. In the data set with HeLa cells (setting [12]), the “cell count rep 1” value is reported as 35239, the “cell count rep 2” value came to 17173 and the “cell count rep 3” value is given as 16326. For the same compound, in the data set with HeLa cells (setting [13]), the z-scoreHeLa mean was -0.35, the “z-scoreHeLa rep 1” value stood at 0.85, the “z-scoreHeLa rep 2” value is -1.39 and the “z-scoreHeLa rep 3” value is reported as -0.51. In the data set with HeLa cells (setting [7]), the cell death result is given as “No”. Also, in the data set with HeLa cells (setting [14]), the cell death entry is listed as “No”. In the data set with HeLa cells (PKIS compound screen), the z-scoreHeLa mean is recorded as -0.43, the “z-scoreHeLa rep 1” value is on record as -0.58, the “z-scoreHeLa rep 2” value was -1.00 and the “z-scoreHeLa rep 3” value came to 0.28. Moreover, in the data set with HeLa cells (setting [5]), the “cell count rep 1” value came out at 5074, the “cell count rep 2” value is 4507 and the “cell count rep 3” value is 6035.
Turning to `Cc1cccc2c1NC(=O)C2=NNc1ccc(S(N)(=O)=O)cc1` [GW282536X], in the data set with intracellular MRSA (setting [9]), the “%GFP+ rep 1” value is 21.7%, the “%GFP+ rep 2” value came out at 20.9% and the “%GFP+ rep 3” value is 20.2%. Further, the effect entry with intracellular MRSA (Yes/No call from z-scoreMRSA+) was “No”. Further, the hit entry with intracellular MRSA (setting [3]) is given as “No”. Moreover, in the data set on intracellular MRSA (setting [4]), the “z-scoreMRSA+ mean” value was -0.62, the “z-scoreMRSA+ rep 1” value is listed as -0.83, the “z-scoreMRSA+ rep 2” value is listed as -0.42 and the “z-scoreMRSA+ rep 3” value is given as -0.60. Also, in the data set with HeLa cells (setting [12]), the “cell count rep 1” value turned out to be 1823, the “cell count rep 2” value is reported as 2013 and the “cell count rep 3” value is reported as 1046. Moreover, the cell death result in the data set with HeLa cells (Yes/No call from z-scoreHeLa) was “No”. In the data set with HeLa cells (setting [6]), the z-scoreHeLa mean is listed as -2.08, the “z-scoreHeLa rep 1” value was -1.82, the “z-scoreHeLa rep 2” value was -1.76 and the “z-scoreHeLa rep 3” value is listed as -2.65.
